Measured values: patent US20200055817A1 (AbbVie Deutschland GmbH & Co. KG, priority 2016, published 2020)

Columns and labels:
Format in all cases: cell-based
S1P4 = molecular target: T1, S1P4 (Homo sapiens, UniProt O95977); assay: Aequorin assay, agonist potency, S1P4; conditions: agonist mode, aequorin luminescence
T1 sequence (O95977 1-384): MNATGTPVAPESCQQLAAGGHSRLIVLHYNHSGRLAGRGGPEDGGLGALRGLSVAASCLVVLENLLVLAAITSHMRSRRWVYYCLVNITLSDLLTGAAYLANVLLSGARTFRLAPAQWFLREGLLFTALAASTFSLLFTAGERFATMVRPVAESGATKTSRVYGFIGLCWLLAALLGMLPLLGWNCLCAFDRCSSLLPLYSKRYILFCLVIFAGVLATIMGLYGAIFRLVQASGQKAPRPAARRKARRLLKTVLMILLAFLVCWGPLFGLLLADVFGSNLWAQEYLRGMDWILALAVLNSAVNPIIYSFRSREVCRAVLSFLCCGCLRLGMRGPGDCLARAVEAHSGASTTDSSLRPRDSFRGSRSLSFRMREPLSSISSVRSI
Summary of the method: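 Cells loaded overnight at RT with 5 μM coelenterazine h in DMEM/HAM's F12 with HEPES plus 0.1% fatty acid-free BSA, then injected onto compounds; agonist-induced calcium luminescence recorded for 90 s and integrated. Signal normalised to digitonin (100 μM) or ATP (20 μM) wells, S1P as reference agonist; sigmoidal nonlinear regression.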

[1] = molecular target: T2, human EDG8 (S1PR5) receptor (Homo sapiens, UniProt Q9H228); assay: Aequorin assay, agonist potency, CHO-A21-EDG8#12 cells; conditions: agonist mode, aequorin luminescence; read-out: S1P5 EC50 range #
T2 construct: carries the transgenes human EDG8 (S1PR5) receptor (Acession number NP_110387.1); expressed in transfected cells; host or cells: CHO-A21-EDG8#12 (CHO clone co-expressing mitochondrial aequorin and chimaeric Gaqi5)
Summary of the method: (§1)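 CHO cells coexpressing receptor, mitochondrial aequorin and Gαqi5 (S1P3 pool: GNA16) were loaded overnight at RT with 5 μM coelenterazine h in 0.1% fatty-acid-free BSA buffer. Cells were injected onto compound, luminescence recorded 90 s and integrated, normalised to digitonin or 20 μM ATP; sigmoidal fit.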

[2] = molecular target: T3, human EDG3 (S1PR3) receptor (Homo sapiens, UniProt Q99500); assay: Aequorin assay, agonist potency, CHO-A2-S1P3 Mix cells; conditions: agonist mode, aequorin luminescence
T3 construct: expressed in transfected cells; host or cells: CHO-A2-S1P3 Mix (CHO cell pool co-expressing mitochondrial aequorin and GNA16)
Protocol: Agonistic activity was measured as described below.
Cell clone CHO-A21-Edg1#17 carries the transgenes human EDG1 (S1PR1) receptor (Accession number NP_001391.2), mitochondrially targeted Aequorin (active part corresponds to accession number 1SL8_A) and chimaeric Gaqi5=Gaq modified with the 5 C-terminal amino-acids replaced with those of the Gai protein (DCGLF). CHO-A2-S1P3 Mix is a cell pool ectopically expressing human EDG3 (S1PR3) receptor (Accession number NP_005217.2) mitochondrially targeted Aequorin (active part has a sequence similar to accession number AY601106.1) and GNA16 (Accession number NP_002059.3). Cell clone CHO-A21-EDG8#12 carries the transgenes human EDG8 (S1PR5) receptor (Acession number NP_110387.1), mitochondrially expressed Aequorin (active part corresponds to accession number 1SL8_A) and chimaeric Gaqi5 (Gaq modified to present the 5 last amino-acids of the Gai protein “DCGLF”; see above). Cells are grown to mid-log phase in culture medium (HAM's F12, 10% FBS, 100 IU/mL penicillin, 100 μg/mL streptomycin, 250 μg/mL Zeocin, 400 μg/mL G418). 18 hours prior to frozen cells preparation, the medium is changed to remove the antibiotics.
18 hours prior to the test, vials of frozen cells are quickly thawed in a 37° C. water bath, cells are recovered by centrifugation and resuspended in assay buffer (DMEM/HAM's F12 with HEPES, without phenol red+0.1% fatty acid-free BSA). Cells are gently agitated in suspension overnight at RT in presence of 5 μM of Coelenterazine h (Molecular Probes). On the day of the test, cells are diluted to their final working concentrations in assay buffer and agitated in suspension for 1 h at RT. Cells are then placed in the luminescence reader (Hamamatsu Functional Drug Screening System 6000, FDSS6000). During cells incubation, compounds are prepared in 100% DMSO, and subsequently diluted in assay buffer. Compounds are then dispensed in the assay plate (black, clear-bottom, 384-well plate). After binding of agonists to the human S1P receptor the intracellular calcium concentration increases and binding of calcium to the Aequorin/Coelenterazine complex leads to an oxidation reaction of coelenterazine, which results in the production of Aequorin, coelenteramide, CO2 and light (Dmax 469 nm). The luminescent response is dependent on the agonist concentration. For agonist testing, 30 μL of cell suspension are injected on 30 μL of test compound or reference agonist in the assay plate. The resulting emission of light is recorded for 90 seconds using the FDSS6000. Dose response curves with the reference compounds are performed before testing the compounds. S1P is the reference agonist and JTE-013 the reference antagonist for S1P2.
Luminescence data are integrated over the reading interval for agonist and antagonist modes. To standardize the emission of recorded light (determination of the “100% signal”) across plates and across different experiments, some of the wells contain 100 μM digitonin or a saturating concentration of ATP (20 μM). Plates also contain the reference agonist at a concentration equivalent to the EC80 obtained during the test validation and the EC100. Dose-response data from test compounds were analyzed with XLfit (IDBS) software using nonlinear regression applied to a sigmoidal dose-response model and the following equation: […]

[3] = molecular target: T4, human EDG1 (S1PR1) receptor (Homo sapiens, UniProt P21453); assay: Aequorin assay, agonist potency, CHO-A21-Edg1#17 cells; conditions: agonist mode, aequorin luminescence; read-out: S1P1 EC50
T4 construct: expressed in transfected cells; host or cells: CHO-A21-Edg1#17 (CHO clone co-expressing mitochondrial aequorin and chimaeric Gaqi5)
Summary of the method: as §1

T3 sequence (Q99500 whole entry): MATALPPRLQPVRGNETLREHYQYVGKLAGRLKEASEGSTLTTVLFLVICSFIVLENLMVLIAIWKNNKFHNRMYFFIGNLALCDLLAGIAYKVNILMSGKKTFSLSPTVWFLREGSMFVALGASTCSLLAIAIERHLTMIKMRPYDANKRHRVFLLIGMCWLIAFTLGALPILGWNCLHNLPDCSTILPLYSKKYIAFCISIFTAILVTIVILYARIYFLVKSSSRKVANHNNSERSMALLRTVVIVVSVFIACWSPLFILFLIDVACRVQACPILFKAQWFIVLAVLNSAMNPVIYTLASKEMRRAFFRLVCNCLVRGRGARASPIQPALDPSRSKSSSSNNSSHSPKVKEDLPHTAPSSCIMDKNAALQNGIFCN
T4 sequence (P21453 whole entry): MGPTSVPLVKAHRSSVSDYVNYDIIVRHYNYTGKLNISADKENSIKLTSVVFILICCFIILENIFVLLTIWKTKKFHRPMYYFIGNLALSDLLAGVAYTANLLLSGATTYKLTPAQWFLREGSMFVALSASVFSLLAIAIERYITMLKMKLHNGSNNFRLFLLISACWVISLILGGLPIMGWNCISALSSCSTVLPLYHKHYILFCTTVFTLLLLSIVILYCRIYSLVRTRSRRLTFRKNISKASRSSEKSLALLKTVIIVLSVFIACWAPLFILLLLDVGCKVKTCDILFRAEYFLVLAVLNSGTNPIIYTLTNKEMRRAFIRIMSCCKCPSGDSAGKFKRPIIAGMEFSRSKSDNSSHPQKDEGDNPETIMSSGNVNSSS
T2 sequence (Q9H228 whole entry): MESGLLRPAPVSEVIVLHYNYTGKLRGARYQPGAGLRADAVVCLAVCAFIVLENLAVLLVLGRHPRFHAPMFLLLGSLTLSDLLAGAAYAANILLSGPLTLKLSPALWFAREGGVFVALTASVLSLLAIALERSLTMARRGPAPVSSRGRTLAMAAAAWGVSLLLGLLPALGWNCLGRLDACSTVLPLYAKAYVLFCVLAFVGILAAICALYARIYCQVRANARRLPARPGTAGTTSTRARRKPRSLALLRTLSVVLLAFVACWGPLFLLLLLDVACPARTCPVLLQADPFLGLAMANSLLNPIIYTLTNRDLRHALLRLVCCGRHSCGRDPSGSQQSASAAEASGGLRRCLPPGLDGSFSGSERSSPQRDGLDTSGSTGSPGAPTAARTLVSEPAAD

SMILES | EC50 (S1P4) [µM] | EC50 [1] [µM] | EC50 [2] [µM] | EC50 [3] [µM]
CCc1cccc(Cl)c1COc1ccc2c(c1)CC1(C2)CN(CC(=O)O)C1 [Example 24, 2,2,2-trifluoroacetic acid compound with 2-(5′-((2-chloro-6-ethylbenzyl)oxy)-1′,3′-dihydrospiro[azetidine-3,2′-inden]-1-yl)acetic acid (1:1)] | < 1 | ≤ 0.01 | > 1 | > 1
O=C(O)C1(CN2CC3(Cc4ccc(OCc5ccccc5)cc4C3)C2)CC1 [Example 29, 1-((5′-(benzyloxy)-1′,3′-dihydrospiro[azetidine-3,2′-inden]-1-yl)methyl)cyclopropanecarboxylic acid] | > 1 | 1 to 10 | > 1 | > 1
O=C(O)CN1CC2(Cc3ccc(OCCc4ccccc4C(F)(F)F)cc3C2)C1 [Example 62] | < 1 | ≤ 0.01 | > 1 | > 1
CCc1cccc(Cl)c1COc1ccc2c(c1)CC1(C2)CN(CC(C)CC(=O)O)C1 (stereo not shown) [Example 64, 4-(5′-((2-chloro-6-ethylbenzyl)oxy)-1′,3′-dihydrospiro[azetidine-3,2′-inden]-1-yl)-3-methylbutanoic acid] | < 1 | ≤ 0.01 | > 1 | 
O=C(O)CN1CC2(Cc3ccc(OCc4ccccc4C4CC4)cc3C2)C1 [Example 111, 2-(5′-((2-cyclopropylbenzyl)oxy)-1′,3′-dihydrospiro[azetidine-3,2′-inden]-1-yl)acetic acid] | < 1 | ≤ 0.01 | > 1 | > 1
CCc1cccc(Cl)c1COc1ccc2c(c1)CC1(C2)CN(CC2(C(=O)O)CC2)C1 [Example 28, 1-((5′-((2-chloro-6-ethylbenzyl)oxy)-1′,3′-dihydrospiro[azetidine-3,2′-inden]-1-yl)methyl)cyclopropanecarboxylic acid] | < 1 | ≤ 0.01 | > 1 | > 1
O=C(O)C1(CN2CC3(Cc4ccc(-c5ccc(OCC6CCCCC6)cc5)cc4C3)C2)CC1 [Example 51, 1-((5′-(4-(cyclohexylmethoxy)phenyl)-1′,3′-dihydrospiro[azetidine-3,2′-inden]-1-yl)methyl)cyclopropanecarboxylic acid] | > 1 | 0.01 to 0.1 | > 1 | > 1
O=C(O)CN1CC2(Cc3ccc(OCc4ccccc4)cc3C2)C1 [Example 8, 2-(5′-(benzyloxy)-1′,3′-dihydrospiro[azetidine-3,2′-inden]-1-yl)acetic acid] | < 1 | 0.1 to 1 | > 1 | > 1
O=C(O)C1(CN2CC3(Cc4ccc(-c5ccc(OCc6cccc(Cl)c6)cc5)cc4C3)C2)CC1 [Example 52, 1-((5′-(4-((3-chlorobenzyl)oxy)phenyl)-1′,3′-dihydrospiro[azetidine-3,2′-inden]-1-yl)methyl)cyclopropanecarboxylic acid] | < 1 | 0.01 to 0.1 | > 1 | > 1
O=C(O)CN1CC2(Cc3ccc(OCc4ccc(Cl)c(Cl)c4)cc3C2)C1 [Example 25, 2,2,2-trifluoroacetic acid compound with 2-(5′-((3,4-dichlorobenzyl)oxy)-1′,3′-dihydrospiro[azetidine-3,2′-inden]-1-yl)acetic acid (1:1)] | < 1 | 0.01 to 0.1 | > 1 | > 1
O=C(O)C1(CN2CC3(Cc4ccc(OCc5c(Cl)cccc5C5CC5)cc4C3)C2)CC1 [Example 44, 1-((5′-((2-chloro-6-cyclopropylbenzyl)oxy)-1′,3′-dihydrospiro[azetidine-3,2′-inden]-1-yl)methyl)cyclopropanecarboxylic acid compound with acetic acid (1:1)] | < 1 | ≤ 0.01 | > 1 | > 1
N#Cc1ccc(COc2ccc3c(c2)CC2(C3)CN(CC3(C(=O)O)CC3)C2)cc1 [Example 142, 1-((5′-((4-cyanobenzyl)oxy)-1′,3′-dihydrospiro[azetidine-3,2′-inden]-1-yl)methyl)cyclopropanecarboxylic acid] | > 1 | 1 to 10 |  | > 1
CCOc1ccc(C#Cc2ccc3c(c2)OC2(C3)CN(CC(=O)O)C2)cc1 [Example 154, 2-(6′-((4-ethoxyphenyl)ethynyl)-3′H-spiro[azetidine-3,2′-benzofuran]-1-yl)acetic acid] | > 1 | 0.01 to 0.1 |  | < 1
O=C(O)C1CC(N2CC3(Cc4ccc(OCCc5ccccc5C(F)(F)F)cc4C3)C2)C1 (stereo not shown) [Example 105, 3-(5′-(2-(trifluoromethyl)phenethoxy)-1′,3′-dihydrospiro[azetidine-3,2′-inden]-1-yl)cyclobutanecarboxylic acid] | < 1 | 1 to 10 |  | > 1
Cc1cccc(CCCOc2ccc3c(c2)CC2(C3)CN(CC3(C(=O)O)CC3)C2)n1 [Example 146, 1-((5′-(3-(6-methylpyridin-2-yl)propoxy)-1′,3′-dihydrospiro[azetidine-3,2′-inden]-1-yl)methyl)cyclopropanecarboxylic acid] | > 1 | 1 to 10 |  | > 1
O=C(O)C1CC(N2CC3(Cc4ccc(OCc5c(Cl)cccc5C5CC5)cc4C3)C2)C1 (stereo not shown) [Example 91, 3-(5′-((2-chloro-6-cyclopropylbenzyl)oxy)-1′,3′-dihydrospiro[azetidine-3,2′-inden]-1-yl)cyclobutanecarboxylic acid] | < 1 | ≤ 0.01 |  | < 1
O=C(O)C1(CN2CC3(Cc4ccc(-c5ccc(OCc6ccccc6)cc5)cc4C3)C2)CC1 [Example 53, 1-((5′-(4-(benzyloxy)phenyl)-1′,3′-dihydrospiro[azetidine-3,2′-inden]-1-yl)methyl)cyclopropanecarboxylic acid] | < 1 | 0.1 to 1 |  | > 1
O=C(O)C1(CN2CC3(Cc4ccc(OCCc5ccccc5F)cc4C3)C2)CC1 [Example 136, 1-((5′-(2-fluorophenethoxy)-1′,3′-dihydrospiro[azetidine-3,2′-inden]-1-yl)methyl)cyclopropanecarboxylic acid] | < 1 | 1 to 10 |  | > 1
